# Columns and labels:
# [1] = test system: p53 response element (p53RE) in the p21 promoter, TOV112D cells; test: Luciferase reporter assay, p53RE of the p21 promoter; format: cell-based, human
# Procedure: (§1) To that end, luciferase activity assays were performed. Briefly, a 20-bp p53 response element (p53RE) was subcloned in the pGL3 vector to generate a luciferase reporter plasmid, which contained 20 base pairs of the p53 response element in the p21 promoter. The sequences of the 5′ site and 3′ site at −2.27 kb and −1.38 kb (SEQ ID NOs: 1 and 3) and their reverse complements (SEQ ID NOs: 2 and 4) are listed below:
# (§2) The reporter plasmid was transfected to the TOV112D cells or MEF cells with exogenous 248 or 273 mutations. Cells thus-transfected were treated with NSC319726 and subjected to luciferase assays. […] This effect was not seen in MEF cell lines expressing the 248 and 273 alleles, FIG. 10b.
# [2] = Toxicity assays in p53 wild type, p53 null and p53^R172H mice; format: in vivo; settings: for survival by day 4: 10 mg/kg intraperitoneally daily; for survival by day seven: 5 mg/kg
# Procedure: Toxicity assays were performed in p53 wild type, p53 null, and p53^R172H mice to determine if in vivo p53 mutant synthetic lethality could be detected.
# First, three groups of mice: […], p53^+/R172H/R172H mice, were compared.
# Next, the dose was lowered to 5 mg/kg and three groups of mice (p53 wild type, p53 null, and p53^R172H/R172H) were compared.
# [3] = test system: H460-p53 wildtype, MDAMB468-p53^R273H, HCT116-p53 null and TOV112D-p53^R175H xenograft tumors; test: Mouse xenograft tumor growth; format: in vivo; settings: 1 μg/g intravenously once daily vs control
# MEF-p53^R172H cells = test: Viability assay in 12-well cultures (Guava PCA) in MEF lines of the same strain; format: cell-based, mouse; settings: MEF-p53^R172H vs MEF-p53 wild type and MEF-p53 null
# Procedure: The sensitivity was measured in 12-well cultures for viability assay using the Guava PCA instrument following the manufacture protocol.
# [4] = test system: cells carrying p53 mutations; test: NCI60 screen Score ranking, p53 mutant case group vs p53 wild-type control group; settings: p53 273/248 mutant case group vs p53 wild-type control group; NCI60 data
# Procedure: The Score calculations are carried out by: • (1) calculating a Responsive Fraction, i.e., the fraction of the case cell lines in the Case Group that are responsive to the test treatment; • (2) calculating a Non-Responsive Fraction i.e., the fraction of the control cell lines in the Control Group that are not responsive to the test treatment; and • (3) generating a Score of the test treatment according to Formula I:
# Score=the Responsive Fraction×the Non-Responsive Fraction.
# Among the NCI60 cell lines, 16 have wild-type p53 and 44 carry a p53 alteration (Ikediobi, O. N., et al., Mol Cancer Ther, 2006. 5(11): p. 2606-12). Mutations at amino acids 273 and 248 are the most frequent, with 5 and 4 cell lines, respectively. Given the abundance of p53 mutations at positions 273 and 248 within the NCI60 cell lines, and their location in the p53-DNA contact, cells carrying these mutations were chosen to form a case group to identify compounds with increased activity in tumors with a mutant p53. On the other hand, cells with a wild-type p53 were chosen to form a control group. The resulting groups are the following:
# • Leukemia: CCRF-CEM; • Lung Cancer: NCI-H322M; • Central Nervous System Cancer: SF-295, SF-268, SNB-19, and U251; • Colorectal Cancer: HT29 and SW-620; • Ovarian Cancer: OVCAR-3.
# • Breast Cancer: MCF7; • Colorectal Cancer: HCT-116; • Lung Cancer: A549, NCI-H226, and NCI-H460; • Leukemia: SR; • Melanoma: LOXIMVI, MALME-3M, SK-MEL-5, UACC-257, and UACC-62; • Ovarian Cancer: OVCAR-5; • Renal Cancer: A498, ACHN, CAKI-1, and UO-31.
# Using the protocols described above, the NCI60 treatment-cell line RG was constructed, taking RS=log10IC50-average(log10IC50) as a relative response sensitivity measurement and computing the average(log10IC50) over all the 60 cell lines. The Case and Control groups listed above were chosen, and the score in Formula I was computed for the 47,624 compounds in the NCI60 screen.
# [5] = test system: p53 targets (p21, PUMA, and MDM2); test: Quantitative real-time PCR of p53 targets; format: cell-based, human; settings: TOV112D cells, treated vs untreated, normalized with actin
# Procedure: (§3) Each treatment had three independent repeats (labeled as 1, 2, and 3); (e) Comparison of the p53 expression signatures of 319726 treated cells with that of p53 wild type, p53 null and p53R175H cell lines in response to gamma-irradiation.
# Assays were carried out to compare the mRNA levels of several p53 targets (p21, PUMA, and MDM2) in the TOV112D (p53R175H), OVCAR3 (p53R248W) and SKOV3 (p53 null) upon treatment with the compounds. The relative gene expression level was normalized with the actin and the ratio of the treated level vs. untreated level was shown for each cell line.
# [6] = test system: p53 wild type cell lines (H460, HCT116, MCF7 and WI38); test: Sensitivity of human tumor cell line system; format: cell-based; settings: 0.1 μM to 10 μM
# [7] = test system: p53 response element (p53RE) in the p21 promoter, MEF cells with exogenous 248 or 273 mutations; test: Luciferase reporter assay, p53RE of the p21 promoter; format: cell-based, mouse; settings: MEF cell lines expressing the 248 and 273 alleles
# Procedure: as §1, §2
# p21 protein = test: Western Blot of p21 protein levels; format: cell-based, human
# [8] = test system: p53^R172H/R172H mice tissues; test: Cleaved Caspase-3 immuno-staining and quantitative-PCR of p53 targets in mouse tissues; format: in vivo
# p53 R175H = target: T1, p53 R175H (Homo sapiens, UniProt P04637, R175H); test: Immunoprecipitation of TOV112D lysates with mutant specific antibody PAB240; format: cell-based; settings: detection with DO-1
# T1 construct: one ovarian carcinoma cell line containing a p53^R175H (TOV112D); endogenous in cells; host or cells: TOV112D human ovarian carcinoma cells
# From the text: This conformational change was confirmed by immunoprecipitation of lysates from NSC319726-treated TOV112D cells using the mutant specific antibody PAB240. To that end, cell lysates were precipitated with PAB240 and detected with p53 (DO-1) antibody which recognizes all types of p53 protein conformations.
# [9] = test system: 10(3) cells with human mutant p53 construct 248; test: Growth inhibition assay on isogenic murine fibroblast lines (96-well MTS); format: cell-based; settings: cells with mutation p53^248
# Procedure: (§4) None of these compounds have been previously reported for their selective activity in cells with a mutant p53. To provide further evidence for their specificity, growth inhibition assays were performed on isogenic cell lines. Previously developed murine fibroblast cell line (10)3 (p53 null) and 10(3) with transfection of cytomegalovirus-human mutant p53 constructs (273, 248 and 175) (Dittmer, D., et al., Nature Genetics, 1993. 4(1): p. 42-6) were used as cases, while the murine fibroblast cell line 3T3 was used as a p53 wild type control.
# (§5) The compounds were validated using several different cell line systems. The first system used was a mouse embryonic fibroblast (MEF) system in which a p53 null MEF line, 10(3), was used as a parental line from which several stable CMV-mutant p53 transfectants were derived. The p53 mutations investigated were the “hot spot” mutants 175, 248, and 273. NIH3T3 fibroblasts were used as a p53 wild type control.
# [10] = test system: murine fibroblast cell line (10)3 (p53 null); test: as above; format: cell-based; settings: p53^null cells
# Procedure: as §4, §5
# [11] = test system: 10(3) cells with human mutant p53 construct 273; test: as above; format: cell-based; settings: cells with mutation p53^273
# Procedure: as §4, §5
# [12] = test system: murine fibroblast cell line 3T3 (p53 wild type control); test: as above; format: cell-based; settings: FIG. 5c
# Procedure: as §4, §5
# [13] = test system: 10(3) cells with human mutant p53 construct 175; test: as above; format: cell-based
# Procedure: as §4, §5
# [14] = test system: MEF cells with exogenous p53 mutations; test: Apoptosis by Annexin V staining in MEF cells; format: cell-based, mouse; settings: for induction of apoptosis (Annexin V staining): MEF cells with exogenous p53 mutations
# From the text: (§6) Briefly, apoptosis was examined by Annexin V staining using standard methods.
# [15] = test system: TOV112D (p53^R175H) ovarian carcinoma cell line; test: Sensitivity of human tumor cell line system; format: cell-based; settings: 0.1 μM to 10 μM
# From the text: Five tumor cell lines with endogenous […] mutations were compared, including two cell lines containing R248W mutations and three cell lines with a R273H mutation.
# p53^R175H mutant protein = target: T2, p53^R175H mutant protein (Homo sapiens, UniProt P04637, R175H); test: Immuno-fluorescent staining with conformation-specific antibodies (PAB1620, PAB240, PAB1801) in TOV112D; format: cell-based
# T2 construct: one ovarian carcinoma cell line containing a p53^R175H (TOV112D); endogenous in cells; host or cells: TOV112D human ovarian carcinoma cells
# From the text: Conformational change to wild type in TOV112D (p53R175H) was studied by immuno-fluorescent staining.
# TOV112D cells = test: Growth inhibition after silencing of p53 by siRNA; format: cell-based, human; settings: p53^R175H silenced by siRNA
# From the text: (§7) In contrast, the sensitivity of the p53 null cell line (SKOV3) was not reduced by the siRNA in a similar fashion.
# [16] = test system: p53 null cell line (SKOV3); test: Growth inhibition after silencing of p53 by siRNA; format: cell-based, human
# From the text: as §7
# panel of p53 targets = test: Microarray analysis of p53 target genes in TOV112D cells; format: cell-based, human; settings: TOV112D vs untreated controls
# From the text: as §3
# To examine the transcriptional activity of the NSC319725 and […]-treated cells on a larger scale, microarrays were used to analyze control- and compound-treated TOV112D cells.
# [17] = test system: TOV112D-p53R175H, OVCAR3-p53 R248W and SKOV3-p53 null; test: Apoptosis by Annexin V staining in ovarian carcinoma cell lines; format: cell-based, human; settings: three ovarian carcinoma cell lines
# From the text: as §6
# [18] = cells carrying the p53^173 mutation (so in the source)
compound,measurement,setting,value
C/C(=N\NC(=S)N1CCC1)c1ccccn1 [NSC319726],increase in luciferase activity,[1],2.5 fold
same,mice alive by day seven,"[2]; mouse, in vivo, ip, 10 mg/kg",approximately 40%
same,survival by day 4,[2]; p53^+/R172H mice,30%
same,survival by day seven,[2]; p53^R172H/R172H mice,30%
same,survival by day seven,[2]; p53 null mice,100%
same,survival by day seven,[2]; p53 wild type mice,100%
same,survival by day 4,[2]; p53 wild type mice,70%
same,xenograft tumor growth inhibition,[3],inhibited mouse xenograft tumor growth in an allele specific mutant p53 dependent manner
same,sensitivity compared to p53 wild type and p53 null controls,MEF-p53^R172H cells,much higher sensitivity
same,Score (Formula I),[4],0.52
same,"induction of mRNA of p53 targets p21, PUMA, MDM2",[5],induced all three targets
same,sensitivity,[6],relative lack of sensitivity
same,increase in luciferase activity,[7],not seen
same,p21 induction (Western blot),p21 protein; TOV112D (p53R175H),induced p21
same,cleaved Caspase-3 immuno-stained cells in spleen and thymus,"[8]; p53^R172H/R172H mice vs wild type controls, 24 hours treatment",abundantly more cleaved Caspase-3 immuno-stained cells
same,mRNA levels of p53 targets in tissues,"[8]; p53^R172H/R172H mice vs wild type, lung, spleen, thymus, small intestine, 24 hours",Elevated mRNA levels
same,amount of p53 R175H immunoprecipitated by mutant specific antibody PAB240,p53 R175H,greatly reduced
same,IC50,[9],~100 nM
same,IC50,[10],~100 nM
same,IC50,[11],~100 nM
same,IC50,[12],not even reached
same,IC50,"[13]; 175 mutant, FIG. 5c",8 nM
same,IC50,[13]; [18],~10 nM
same,apoptosis response of (10)3/175,[14]; (10)3/175 compared with other MEF lines,strongest apoptosis response
same,induction of apoptosis (Annexin V staining),[14],induced apoptosis
same,sensitivity,[15],marked sensitivity
same,"conformational change of p53^R175H (recognised by PAB1620, no longer by PAB240)",p53^R175H mutant protein,induced a change in conformation
same,change of sensitivity on p53 siRNA,TOV112D cells,reduced by four-fold
same,change of sensitivity on p53 siRNA,[16],not reduced
same,transcriptional levels of panel of p53 targets (microarray),panel of p53 targets,induced a large proportion of these genes
same,induction of apoptosis (Annexin V staining),[17],induction of apoptosis in all three
CC1=CC(=C(c2ccc(N)cc2)c2ccc(N)cc2)C=CC1=N.Cl [NSC93739],Score (Formula I),[4],0.50
"COc1cc([C@@H]2c3cc4c(cc3[C@@H](O[C@@H]3O[C@@H]5CO[C@@H](C)O[C@H]5[C@H](O)[C@H]3O)[C@H]3COC(=O)[C@H]23)OCO4)cc(OC)c1O [Etoposide, reference compound]",p21 induction (Western blot),p21 protein; TOV112D (p53R175H),failed to induce p21
CC(=O)c1ccc2c(c1)c1c(C)c3c[n+](C)ccc3c(C)c1n2C.[I-] [NSC612941],Score (Formula I),[4],0.55
CC(=NNC(=S)N(C)C)c1ccccn1 [NSC319725],Score (Formula I),[4],0.50
same,"induction of mRNA of p53 targets p21, PUMA, MDM2",[5],no such effect
same,p21 induction (Western blot),p21 protein; SKOV3 (p53 null),did induce p21
same,p21 induction (Western blot),p21 protein; TOV112D (p53R175H),did not induce p21
same,amount of p53 R175H immunoprecipitated by mutant specific antibody PAB240,p53 R175H,not
same,IC50,[9],~100 nM
same,IC50,[10],~100 nM
same,IC50,[11],~100 nM
same,IC50,[13]; [18],~10 nM
same,induction of apoptosis (Annexin V staining),[14],did not induce apoptosis
Cc1ccc(S(=O)(=O)O)cc1.Cn1c2ccccc2n2c3ccccc3c3nnc(N)c-3c12 [NSC694266],Score (Formula I),[4],0.50
COc1ccc2c(c1)c1c(C)c3c[n+](C)ccc3c(C)c1n2C [NSC155694],Score (Formula I),[4],0.55

# — patent publication US20130345164A1, “TREATMENTS FOR CELLULAR PROLIFERATIVE DISORDERS AND IDENTIFICATION THEREOF” (UNIVERSITY OF MEDICINE AND DENTISTRY OF NEW JERSEY, priority 2010, published 2013)
